# Experimental data: patent publication US20030040531A1, “Remedies for reperfusion injury containing integrin alphanubeta 3 antagonist” (priority 2000, published 2003)
# Columns and labels:
# [1] = test system: hamster acute ischemia-reperfusion model; experiment: hamster acute ischemia-reperfusion model; type: in vivo; conditions: for reduction of myocardial infarct size (IS/AR): sodium salt mixed with arginine; for myocardial infarct size (IS/AR): average±SE, n=5, solvent administration group 49.3±7.1%
# Procedure: A polyethylene tube was inserted into the carotid artery and the survical vein of Syrian male hamsters (10 to 13 weeks old) under pentobarbital anesthesia (60 mg/kg, i.p.). An electrocardiogram (I or II leading) was measured through a bioelectricity amplifier by leading from electrodes which had pierced the limbs. A polyethylene tube was inserted into the trachea, and artificial respiration was carried out with an artificial respirator (amount of ventilation: 10 ml/kg/stroke, number of times of ventilation: 70 strokes/min). The blood pressure was measured through a blood pressure amplifier, and the heart rate was measured with a heart rate unit using blood pressure as a trigger. The animals underwent thoracotomy, and the coronary, together with the myocardium, was then occluded using a suture with a needle. Ischemia for 90 min was followed by reperfusion for 2 hr to quantitatively determine myocardial infarct size.
# A sodium salt of the compound represented by formula (IV) was mixed with a 2-fold equivalent of arginine, and the mixture was dissolved in a 5% glucose solution. The dose volume was 2 ml/kg+2 ml/kg/h (bolus +infusion). For a solvent administration group, a 0.64 mg/ml arginine/5% glucose solution was used. The medicament was continuously administered through an infusion pump for the period starting with one min before ischemia and ending with the completion of the experiment. After reperfusion for 2 hr, the animals were slaughtered by intraveneous injection of 1,000 U/kg of heparin and an excessive amount of pentobarbital, and the heart was then removed. After perfusion with a Ringer solution, blood was washed away from the heart, and the coronary artery was re-occluded. After the reocclusion, 0.4 ml of 0.1% Evans blue was injected through the aorta. The heart was rinsed with physiological saline and was then cut into about 1 mm slices. For each slice, the left ventricle (LV) was separated, and the weight of the left ventricle and the weight of the area-at-risk (AR) were measured. The area-at-risk was stained with a 50 mM Tris.HCl (pH 7.4, 37° C.) buffer containing 1.5% triphenyltetrazolium chloride heated at 37° C., and the weight of the infarct area (IS; infarct size) was measured. The measurement of the weight was carried out under a blind.
# [2] = test system: rat acute myocardial ischemia-reperfusion model; experiment: rat acute myocardial ischemia-reperfusion model; type: in vivo; conditions: for myocardial infarct size (proportion of the infarct area in the left ventricle): average value±SE, n=5
# Procedure: Male Wistar rats (330 to 420 g) were subjected to controlled respiration using an artificial respirator under pentobarbital anesthesia (60 mg/kg, i.p.), and the blood pressure and the heart rate were measured through a blood pressure amplifier and a heart rate unit. Further, for the ischemia of the myocardium, an increase in voltage of R-wave in the II leading in an electrocardiogram was confirmed with a monitor through a bioelectricity amplifier. The rats underwent thoracotomy, and the coronary artery, together with the myocardium, was then occluded using a suture with a needle. Ischemia for 3 min and reperfusion for 5 min were followed by ischemia for 45 min and reperfusion for 45 min. Medicaments tested and concentrations thereof were 3 mg/kg+3 mg/kg/hr (bolus +infusion) (L; low dose group) and 6 mg/kg+3 mg/kg/hr (bolus +infusion) (H; high dose group) for the compound represented by formula (V); 3 mg/kg+3 mg/kg/hr (bolus +infusion) for the compound represented by formula (VI); 3 mg/kg+3 mg/kg/hr (bolus +infusion) (L; low dose group) and 6 mg/kg+3 mg/kg/hr (bolus +infusion) (H; high dose group) for the compound represented by formula (IV); 5 mg/kg+5 mg/kg/hr(bolus +infusion)(L; low dose group) and 10 mg/kg+10 mg/kg/hr (bolus +infusion) (H; high dose group) for the compound represented by formula (VII); and 1 mg/kg+1 mg/kg/hr (bolus+infusion) (L; low dose group) and 6 mg/kg+6 mg/kg/hr (bolus+infusion) (H; high dose group) for the compound represented by formula (VIII). For a control group (group C), a 10% (v/v) dimethyl sulfoxide/5% glucose solution was administered, and each medicament was dissolved in the same solvent. The dose volume was 3 ml/kg+3 ml/kg/h (bolus+infusion). The medicament was continuously administered through an infusion pump for the period starting with one min before the ischemia and ending with the completion of the experiment. After reperfusion for 45 min, the rats were slaughtered by excessive administration of pentobarbital, and the heart was removed. After perfusion with a Ringer solution, perfusion staining was carried out with 1.5% triphenyltetrazolium chloride, and the proportion of the infarct area in the left ventricle was quantitatively determined. For animals used in the experiment, each group consisted of 5 rats.
# platelet aggregation = experiment: inhibition of platelet aggregation, hamster; type: cell-based; conditions: Mesocricetus auratus, read-out: concentration (IC50) necessary for inhibition of platelet aggregation
# Procedure: The platelets aggregation was measured by the Born's method (G. V. R. Born, Nature 194, 927 (1962)). Blood was collected through an injector containing a 3.8% sodium citrate solution from the aorta abdominalis (final concentration: 0.38%). Centrifugation was carried out at 900 rpm (about 80× g) for 10 min to collect platelet-rich plasma, and centrifugation was further carried out at 3,000 rpm (about 880× g) for 10 min to collect platelet-poor plasma, followed by the measurement of aggregation with an aggregometer. In this case, ADP (final concentration: 5 μM) was used as an aggregation inducer.
# [3] = 3 mg/kg+3 mg/kg/hr (bolus+infusion)
# [4] = 6 mg/kg+3 mg/kg/hr (bolus+infusion), group H
compound,measurement,setting,value
"O=C(NCC(NS(=O)(=O)c1ccccc1)C(=O)O)c1ccc(N2CCC(NC3=NCCCN3)CC2)c(F)c1 (stereo in doubt) [formula (IV), (2S)-Benzenesulfonylamino-3-[3-fluoro-4-{4-(1,4,5,6-tetrahydropyrimidin-2-ylamino)-piperidin-1-yl}benzoylamino]propionic Acid]",reduction of myocardial infarct size (IS/AR),"[1]; group H 1.0 mg/kg+1.0 mg/kg/h (bolus+infusion), significant difference",49.3%
same,myocardial infarct size (IS/AR),[1]; group H 1.0 mg/kg+1.0 mg/kg/h,25.0±2.8%
same,reduction of myocardial infarct size (IS/AR),[1]; group L 0.33 mg/kg+0.33 mg/kg/h (bolus+infusion),30.9%
same,myocardial infarct size (IS/AR),[1]; group L 0.33 mg/kg+0.33 mg/kg/h,34.0±5.0%
same,reduction of myocardial infarct size as compared with group C,[2]; [3],17.8%
same,myocardial infarct size (proportion of the infarct area in the left ventricle),[2]; [3],32.3±4.9%
same,reduction of myocardial infarct size as compared with group C,[2]; [4],35.1%
same,myocardial infarct size (proportion of the infarct area in the left ventricle),[2]; [4],25.5±1.5%
same,influence on the blood pressure and the heart rate,[2]; doses at which the infarct inhibition action could be obtained,no influence
same,IC50,platelet aggregation,1900 nM
